Data on 39 compounds can be found in ChEMBL document CHEMBL1201862, “PubChem BioAssay data set” (2004).

The target of assay [1] is T1, Cytochrome P450 1A2 (Homo sapiens, UniProt P05177).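 Note: PubChem cytochrome P450 panel assay, CYP1A2 panel member.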
T1 sequence (P05177 whole entry): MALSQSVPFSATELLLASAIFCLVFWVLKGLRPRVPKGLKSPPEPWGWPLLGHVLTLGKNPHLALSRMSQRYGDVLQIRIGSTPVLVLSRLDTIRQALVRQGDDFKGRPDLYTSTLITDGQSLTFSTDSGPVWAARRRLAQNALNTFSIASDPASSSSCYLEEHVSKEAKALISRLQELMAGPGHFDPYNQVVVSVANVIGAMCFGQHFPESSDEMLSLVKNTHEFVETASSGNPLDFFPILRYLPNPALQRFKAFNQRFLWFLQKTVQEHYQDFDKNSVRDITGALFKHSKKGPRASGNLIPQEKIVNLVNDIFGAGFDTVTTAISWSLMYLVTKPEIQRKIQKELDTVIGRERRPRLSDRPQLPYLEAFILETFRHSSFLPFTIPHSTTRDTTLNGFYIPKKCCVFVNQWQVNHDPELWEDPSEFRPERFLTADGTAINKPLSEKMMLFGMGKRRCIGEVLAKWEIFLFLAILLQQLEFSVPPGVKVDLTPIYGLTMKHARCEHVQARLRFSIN

Assay [2] addresses Cytochrome P450 3A4 (Homo sapiens, UniProt P08684).
The target of assay [3] is T2, Corticotropin-releasing factor receptor 2/Corticotropin-releasing factor-binding protein (Homo sapiens, UniProt P24387+Q13324).
T2 sequence (Q13324 whole entry): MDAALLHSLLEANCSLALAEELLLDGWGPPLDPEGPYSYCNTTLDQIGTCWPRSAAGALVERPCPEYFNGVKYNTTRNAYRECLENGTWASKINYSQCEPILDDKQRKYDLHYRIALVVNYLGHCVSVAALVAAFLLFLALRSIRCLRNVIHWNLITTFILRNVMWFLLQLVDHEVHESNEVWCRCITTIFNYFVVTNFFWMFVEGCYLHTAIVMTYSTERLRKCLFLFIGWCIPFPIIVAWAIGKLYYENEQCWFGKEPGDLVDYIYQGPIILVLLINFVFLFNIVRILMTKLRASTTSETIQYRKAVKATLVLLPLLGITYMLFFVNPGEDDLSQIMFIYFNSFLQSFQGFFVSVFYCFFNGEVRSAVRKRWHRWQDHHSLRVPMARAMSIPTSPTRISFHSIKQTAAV
T2 sequence (P24387 whole entry): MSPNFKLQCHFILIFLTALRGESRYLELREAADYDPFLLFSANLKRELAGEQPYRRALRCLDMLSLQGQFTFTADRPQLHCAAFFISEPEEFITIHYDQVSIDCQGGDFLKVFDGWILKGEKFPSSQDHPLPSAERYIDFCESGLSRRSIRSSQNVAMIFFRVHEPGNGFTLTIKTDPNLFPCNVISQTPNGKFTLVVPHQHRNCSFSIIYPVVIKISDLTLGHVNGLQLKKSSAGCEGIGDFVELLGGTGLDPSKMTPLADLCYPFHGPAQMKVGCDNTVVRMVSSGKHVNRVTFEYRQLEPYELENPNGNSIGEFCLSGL
In words: activators of CRF receptor 2 with binding protein – uHTS hits, confirmation (AID 602473). It counts as functional. To be noted: read-out: EC50_Mean.

The target of assay [4] is T2, Corticotropin-releasing factor receptor 2/Corticotropin-releasing factor-binding protein. In words: Dose Response confirmation of uHTS hits for small molecule antagonists of the CRF-binding protein and CRF-R2 receptor complex. In kind it is functional. Conditions: read-out: IC50_Mean.
Assay [5] concerns the target Cytochrome P450 2D6 (Homo sapiens, UniProt P10635).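 Note: CYP2D6 member of a cytochrome P450 panel assay.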
Assay [6] in a line: Luminescence Cell-Based Dose Response HTS to Identify Activators of Luciferase Translation or Activity in H4 […] Cells. [Related pubchem assays: 1829 (Project Summary), 1814 (Primary HTS)]. It counts as functional.
A short description of assay [7]: Luminescence Cell-Based Dose Confirmation HTS to Identify Activators of 5'UTR Stem-Loop Driven Alpha-Synuclein mRNA Translation in H4 Neuroglioblastoma Cells. [Related pubchem assays: 1829 (Project Summary), 1814 (Primary HTS)]. In kind it is functional.
Assay [8] relates to H4. The assay is described as follows: Luminescence Cell-Based Dose Response HTS to Identify Activators of 5'UTR Stem-Loop Driven Prion Protein mRNA Translation in H4 Neuroglioblastoma Cells. [Related pubchem assays: 1829 (Project Summary), 1814 (Primary HTS)]. In kind it is functional. To be noted: Homo sapiens.
Assay [9] has as its target Cytochrome P450 2C9 (Homo sapiens, UniProt P11712).
Assay [10] can be described thus: NIH-3T3 fibroblast cytotoxicity, dose response, cytotoxicity control, cell-based, fluorescence, Alamar Blue, secondary assay (AID 2327).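 Note: NIH-3T3 mouse fibroblasts cultured with fluconazole at 8 µg/mL.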 It counts as functional. For orientation: Resazurin is reduced to fluorescent resorufin, in cell work by metabolically active cells.
The nature of assay [11]: C. albicans growth with fluconazole, confirmation, fluorescence, retest (AID 2467). In kind it is functional, cell-based.
The test system of assay [12] is Streptococcus. The assay is described as follows: Group A Streptococcus viability loss, dose response, counter-screen for streptokinase expression inhibitor project, luminescence, BacTiterGlo (AID 1915).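 Note: potency for reduction of bacterial viability or growth.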 It counts as functional, organism-based. A general note: A counterscreen serves to expose hits that act by an unwanted route or on another target.
In assay [13] the test system is Streptococcus sp. 'group A'. The assay is described as follows: growth inhibition of control SK(-) GAS strain, dose response, counter-screen for streptokinase expression inhibitor project, luminescence, kanamycin, BacTiterGlo, confirmation (AID 1900). In kind it is functional, organism-based.

Activity calls are given as the source filed them. Cut-off read from the data, not from the text of the source, for most assays here: actives have a measured EC50 and inactives only a lower limit. Some results are limits rather than exact numbers.

Cytochrome P450 2D6, sequence (P10635 whole entry): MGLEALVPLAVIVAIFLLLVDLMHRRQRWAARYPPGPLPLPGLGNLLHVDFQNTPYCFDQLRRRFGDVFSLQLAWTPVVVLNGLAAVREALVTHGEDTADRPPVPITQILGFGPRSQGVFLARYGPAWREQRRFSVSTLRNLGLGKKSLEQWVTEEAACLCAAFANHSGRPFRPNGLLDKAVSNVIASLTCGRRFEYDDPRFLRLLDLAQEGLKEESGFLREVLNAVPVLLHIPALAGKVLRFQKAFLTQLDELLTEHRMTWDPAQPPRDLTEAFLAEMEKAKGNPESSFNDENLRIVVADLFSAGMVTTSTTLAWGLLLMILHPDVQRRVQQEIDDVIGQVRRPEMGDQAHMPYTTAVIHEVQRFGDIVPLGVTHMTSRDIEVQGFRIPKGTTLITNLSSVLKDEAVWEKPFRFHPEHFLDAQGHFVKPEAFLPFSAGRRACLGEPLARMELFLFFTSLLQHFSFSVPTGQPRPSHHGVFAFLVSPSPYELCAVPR
Cytochrome P450 3A4, sequence (P08684 whole entry): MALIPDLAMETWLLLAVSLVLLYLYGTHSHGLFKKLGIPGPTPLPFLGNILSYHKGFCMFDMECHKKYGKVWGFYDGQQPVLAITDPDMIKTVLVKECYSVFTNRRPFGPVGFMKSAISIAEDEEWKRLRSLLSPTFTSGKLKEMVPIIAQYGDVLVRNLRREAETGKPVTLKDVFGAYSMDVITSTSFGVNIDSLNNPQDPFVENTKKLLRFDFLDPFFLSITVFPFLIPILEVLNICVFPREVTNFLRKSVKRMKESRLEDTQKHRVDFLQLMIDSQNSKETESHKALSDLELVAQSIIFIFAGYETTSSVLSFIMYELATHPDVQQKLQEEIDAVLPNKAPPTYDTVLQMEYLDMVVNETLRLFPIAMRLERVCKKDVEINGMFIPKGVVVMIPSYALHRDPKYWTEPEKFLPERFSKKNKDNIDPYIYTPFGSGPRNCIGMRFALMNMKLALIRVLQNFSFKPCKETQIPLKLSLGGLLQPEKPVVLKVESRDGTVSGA
Cytochrome P450 2C9, sequence (P11712 whole entry): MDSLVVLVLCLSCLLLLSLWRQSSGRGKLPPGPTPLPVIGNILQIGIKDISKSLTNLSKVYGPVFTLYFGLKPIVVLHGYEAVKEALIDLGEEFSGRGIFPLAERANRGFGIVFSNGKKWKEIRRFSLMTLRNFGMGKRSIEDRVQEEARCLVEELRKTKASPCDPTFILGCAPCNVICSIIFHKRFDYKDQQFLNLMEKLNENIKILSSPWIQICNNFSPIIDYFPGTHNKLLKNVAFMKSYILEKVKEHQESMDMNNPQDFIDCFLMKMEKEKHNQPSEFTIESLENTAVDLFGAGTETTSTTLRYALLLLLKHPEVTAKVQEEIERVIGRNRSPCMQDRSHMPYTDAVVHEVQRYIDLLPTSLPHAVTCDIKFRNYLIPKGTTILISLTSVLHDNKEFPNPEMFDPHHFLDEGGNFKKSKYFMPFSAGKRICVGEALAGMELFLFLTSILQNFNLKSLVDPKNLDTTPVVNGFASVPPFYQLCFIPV

For orientation: AC50 means the concentration giving half of the maximal activity seen. Take `Cc1nc2cnc(Oc3ccccc3)nc2n(CCc2ccccc2)c1=O`: the AC50 in [1] was 3.16 µM (inconclusive); in [2] it was 20 µM (inconclusive).

Consider `COc1ccc(/C=C/c2nc(O)cc(-c3ccccc3)n2)cc1`, for which the EC50 in [3] was > 53 µM (inactive). In addition, the IC50 in assay [4] is > 47.1 µM (inactive).

Turning to `Cc1noc(C)c1C(=O)N1CCC2(CC1)CCN(C(c1ccccc1)c1ccccc1)CC2`, the half-maximal activity concentration (AC50) in assay [5] is 25.1 µM (inconclusive).

As to `Cc1nc2nc(NC(=O)c3ccco3)nn2c(C)c1Cl`, the values for the EC50 in assay [6], in assay [7] and in [8] were 14.3 µM (active), 0.817 µM (active) and 15.5 µM (active), respectively.

Regarding `COc1ccccc1CNc1ncnc2ccc(-c3cccc(NS(C)(=O)=O)c3)cc12`, the AC50 was 0.794 µM (inconclusive) in assay [9] and 20 µM (inconclusive) in [5].

With `NS(=O)(=O)c1cccc(NC(S)=NCc2ccc3c(c2)OCO3)c1`, the EC50 is > 160 µM (inactive) in assay [10] and > 38 µM (not active) in assay [11].

In the case of `COc1ccc(Cc2c(N)nc(N)nc2N)cc1`, the AC50 in assay [5] is 17.8 µM (inconclusive).

Regarding `O=C(Nc1nnc(S(=O)(=O)N2CCOCC2)s1)c1cccc(F)c1`, the EC50 in assay [6] was 9.48 µM (active); in [7] it was 17.8 µM (active); in [8], 14.6 µM (active).

For `O=C(CSCc1cccc(CSCC(=O)Nc2ccccc2)n1)Nc1ccccc1`, the figures for the EC50 in [10] and in assay [11] were > 150 µM (inactive) and > 38 µM (not active), respectively.

`Cc1ccc(NC(=O)NNC(=O)c2cc3ccccc3cc2O)c(C)c1`: the EC50 in assay [10] is > 150 µM (inconclusive).

In the case of `CCOC(=O)N1CCN(S(=O)(=O)c2ccc(C)c(C)c2C)CC1`, in assay [3], the EC50 was > 53 µM (inactive). Also, the IC50 in assay [4] was > 47.1 µM (inactive).

Turning to `CC1(O)c2ccccc2C(=O)N1CCc1ccccc1F` (stereo not given), the AC50 was 20 µM (inconclusive) in assay [1] and 28.2 µM (inconclusive) in assay [5]. The EC50 in assay [3] was > 53 µM (inactive). Besides, in assay [4], the IC50 is > 47.1 µM (inactive).

In the case of `COc1cccc(OCc2nc3ccccc3c(=O)n2N)c1`, the EC50 in assay [10] is > 150 µM (inconclusive); in assay [11], 10.1 µM (active).

For `COC[C@H]1OC(=O)c2coc3c2[C@@]1(C)C1=C(C3=O)[C@H]2CCC(=O)[C@@]2(C)C[C@H]1OC(C)=O`, the AC50 in assay [1] is 31.6 µM (inconclusive); in assay [2], 7.94 µM (inconclusive).

Turning to `COCCCn1c(SCC(=O)Nc2ccccc2F)nnc1-c1ccoc1C`, in assay [3], the EC50 is > 53 µM (inactive). Further, the IC50 in [4] is > 47.1 µM (inactive).

In the case of `CC(C)(CNC(=O)c1ccc(Br)o1)CNC(=O)c1ccc(Br)o1`, the EC50 in assay [3] is > 53 µM (inactive). Further, the IC50 in assay [4] is > 47.1 µM (inactive).

With `O=C(Nc1ccccc1)C(Cc1ccccc1)NC(=O)C12CC3CC(CC(C3)C1)C2` (stereo not given), the AC50 in [5] was 0.00794 µM (inconclusive).

As for `CCOC(=O)c1ccc(NC(=O)c2cccc3c2C(=O)N(CC2CCCO2)C3)cc1` (stereo not given), the EC50 in [3] is > 53 µM (inactive). Besides, the IC50 in assay [4] was > 47.1 µM (inactive).

As for `Cc1noc(C)c1C(=O)N1CCC2(CCN(C(=O)NC(C)C)CC2)CC1`, in assay [1], the concentration at half-maximal activity (AC50) was 5.01 µM (inconclusive).

Consider `CCOc1nc(NCc2ccco2)nc(Nc2ccccc2F)n1`, for which the EC50 in assay [6] was 12.9 µM (active); in assay [7] it was 6.54 µM (active); in assay [8], 69.9 µM (active).

As to `O=C(CSc1nc2ccccc2c(=O)n1Cc1ccccc1)NCc1ccco1`, the concentration at half-maximal activity (AC50) was 1.41 µM (inconclusive) in [1] and 39.8 µM (inconclusive) in assay [2].

Consider `O=C(CC1C(=O)NCCN1C(=O)Nc1ccccc1)Nc1ccc2c(c1)OCO2` (stereo not given), for which the EC50 in assay [3] was > 53 µM (inactive). In [4], the IC50 was > 47.1 µM (inactive).

Turning to `COc1cc2c(cc1NC(=O)c1ccc3c(c1)OCO3)oc1ccccc12`, the EC50 in [6] is 43.1 µM (active); in assay [7], 5.37 µM (active); in assay [8], 85.3 µM (active).

`O=C(Nc1ccccc1)N1CCCC2(CCN(C(=O)Oc3ccccc3)CC2)C1`: the half-maximal activity concentration (AC50) in assay [1] was 25.1 µM (inconclusive); in [5], 20 µM (inconclusive).

Regarding `Cc1ccc(C)c(C(=N)c2ccccc2Cc2ccccc2)c1`, the AC50 in assay [5] is 3.16 µM (inconclusive).

As to `COc1cc(SC)ccc1C(=O)OCC(=O)NC1CC1`, the values for the EC50 in [10] and in assay [11] were > 150 µM (inactive) and > 38 µM (not active), respectively.

In the case of `CCN1CCN(CC(=O)N2N=CCC2c2ccccc2)CC1` (stereo not given), the EC50 in assay [3] was > 53 µM (inactive). The IC50 in [4] is > 47.1 µM (inactive).

As to `O=C(Nc1ccc2c(c1)OCCO2)c1cc2sccc2n1Cc1ccc(F)cc1`, the EC50 in assay [6] is 3.85 µM (active); in assay [7], 0.94 µM (active); in assay [8], > 120 µM (not active).

As for `CCOc1ccccc1NC(=O)CNC(=O)Cc1ccccc1`, the EC50 in assay [3] is > 53 µM (inactive). The IC50 in assay [4] is > 47.1 µM (inactive).

For the compound `Cc1cc(O)c(C(C)C)cc1CN1CCCCC1`, the results for the half-maximal activity concentration (AC50) in assay [1] and in assay [5] were 1 µM (inconclusive) and 3.98 µM (inconclusive), respectively.

Turning to `Nc1ccc2nc(SCc3ccc([N+](=O)[O-])cc3)sc2c1`, the figures for the EC50 in assay [10] and in [11] were > 150 µM (inactive) and > 38 µM (not active), respectively.

On to `O=C(N/N=C/c1ccc(N2CCOCC2)s1)c1ccccc1Cl`, for which the figures for the EC50 in assay [6], in assay [7] and in assay [8] were 12 µM (active), 20.9 µM (active) and 48.6 µM (active), respectively.

Turning to `COC(=O)[C@@]1(Cc2ccccc2)[C@H]2c3cc(C(=O)N4CCCC4)n(Cc4ccc(C)o4)c3C[C@H]2CN1C(=O)c1ccccc1`, the half-maximal activity concentration (AC50) in [1] was 12.6 µM (inconclusive); in assay [5], 39.8 µM (inconclusive).

For `O=C(NCc1ccccc1)C12CN(Cc3ccccc3)CC1C(c1cccc([N+](=O)[O-])c1)=NO2` (stereo not given), in assay [1], the AC50 was 15.8 µM (inconclusive).

As to `COc1ccc(C2C(C#N)=C(N)Nc3nc4ccccc4n32)cc1` (stereo not given), the EC50 was 16.7 µM (active) in assay [6], 12.1 µM (active) in assay [7] and 32.9 µM (active) in assay [8].

`CCCCc1[nH]nc2c1/C(=N/O)CC(c1ccccc1)C2` (stereo not given): the AC50 in assay [5] is 14.1 µM (inconclusive).

As for `Cc1cc(S(=O)(=O)NC2CCCCC2)ccc1OCC(=O)NCC1CCCO1` (stereo not given), the EC50 in [3] is > 53 µM (inactive). The IC50 in assay [4] is > 47.1 µM (inactive).

Turning to `CCOC(=O)c1ccccc1OCc1cc(/C=N/n2cnnc2)ccc1OC`, the AC50 in assay [1] was 1.26 µM (inconclusive). Further, the EC50 in [10] was > 150 µM (inactive); in assay [11], > 38 µM (not active).

Regarding `CC(C)(C)c1ccc(OCC(=O)NNC(=S)NC(=O)c2ccco2)c(Br)c1`, the EC50 was 0.1 µM (active) in assay [12] and < 0.06 µM (active) in [13].
